{
  "source": "patent US4978666A",
  "about": "“Optically active piperazine derivative” (Nippon Chemiphar Co., Ltd., priority 1988, dated 1990)",
  "type_in_all_cases": "in vivo",
  "key": {"[1]": {"test": "Acute toxicity (oral LD50 in rats)", "conditions": "rat, in vivo, po, SD-strain female rats 150 to 200 g, observed for 2 weeks", "from_the_text": "(§1) The peripheral vasodilating effect (action for increase of blood flow of vertebrae) and acute toxicity of (-)-1-(3,4-dimethoxyphenyl)-2-(4-diphenylmethylpiperazinyl)ethanol dihydrochloride according to the invention, (+)-1-(3,4-dimethoxyphenyl)-2-(4-diphenylmethylpiperazinyl)ethanol dihydrochloride, and (±)-1-(3,4-dimethoxyphenyl)-2-(4-diphenylmethylpiperazinyl)ethanol dihydrochloride are illustrated by the following examples.\n(§2) Each of the (-)-, (+)- and (±)-piperazine derivatives were orally administered to SD-strain female rats each having a body weight of 150 to 200 g."}, "[2]": {"test_system": "vertebral blood flow", "test": "Peripheral vasodilating effect (vertebral blood flow increase in anesthetized dogs)", "conditions": "i.v., anesthetized mongrel dogs", "from_the_text": "as §1\nMongrel Dogs of both sexes each weighing about 10 kg were anesthetized with sodium pentobarbital (35 mg/kg, i.v.). Artificial respiration was performed with room air. The vertebral blood flow and femoral blood flow were measured by an electromagnetic flowmeter (avilable from Nihon Koden, MF-27 and MFV-1100) with flow probes. The blood pressure and heart rate were measured at the same time. […]"}, "[3]": {"test_system": "SD-strain female rats", "test": "Acute toxicity (oral LD50 in rats)", "conditions": "SD-strain female rats 150 to 200 g, observed for 2 weeks, 20160 min, dihydrochloride", "from_the_text": "as §1, §2"}, "[4]": {"test": "Concentration in blood after administration to beagle dogs", "conditions": "as compared with administration of the (+)-derivative"}},
  "note": "Where a name gives a salt, the structure may show the parent alone.",
  "data": [
    {"smiles": "COc1ccc(C(O)CN2CCN(C(c3ccccc3)c3ccccc3)CC2)cc1OC", "note": "(racemic) [(±)-Derivative, (±)-1-(3,4-dimethoxyphenyl)-2-(4-diphenylmethylpiperazinyl)ethanol dihydrochloride]", "values": [
      {"measurement": "LD50 at 336 h", "setting": "[1]", "result": 29.1, "unit": "mg/kg"},
      {"measurement": "Percentage of vertebral blood flow increase", "setting": "[2]; 0.03 mg/kg", "result": 16.9, "unit": "%"},
      {"measurement": "Percentage of vertebral blood flow increase", "setting": "[2]; 0.1 mg/kg", "result": 43.9, "unit": "%"}
    ]},
    {"smiles": "COc1ccc(C(O)CN2CCN(C(c3ccccc3)c3ccccc3)CC2)cc1OC", "note": "(single isomer, unassigned; (+)) [(+)-Derivative, (+)-1-(3,4-dimethoxyphenyl)-2-(4-diphenylmethylpiperazinyl)ethanol dihydrochloride]", "values": [
      {"measurement": "LD50", "setting": "[3]", "result": 14.3, "unit": "mg/kg"},
      {"measurement": "Percentage of vertebral blood flow increase", "setting": "[2]; 0.03 mg/kg, dihydrochloride", "result": 13.4, "unit": "%"},
      {"measurement": "Percentage of vertebral blood flow increase", "setting": "[2]; 0.1 mg/kg, dihydrochloride", "result": 34.3, "unit": "%"}
    ]},
    {"smiles": "COc1ccc(C(O)CN2CCN(C(c3ccccc3)c3ccccc3)CC2)cc1OC", "note": "(single isomer, unassigned; (-)) [(-)-Derivative, (-)-1-(3,4-dimethoxyphenyl)-2-(4-diphenylmethylpiperazinyl)ethanol dihydrochloride]", "values": [
      {"measurement": "LD50", "setting": "[3]", "result": 45.4, "unit": "mg/kg"},
      {"measurement": "concentration in blood (determined from an area of a measured blood concentration curve)", "setting": "[4]", "result": "high concentration in blood"},
      {"measurement": "Percentage of vertebral blood flow increase", "setting": "[2]; 0.03 mg/kg, dihydrochloride", "result": 22.9, "unit": "%"},
      {"measurement": "Percentage of vertebral blood flow increase", "setting": "[2]; 0.1 mg/kg, dihydrochloride", "result": 48.0, "unit": "%"}
    ]}
  ]
}
